The source of these data is ChEMBL document CHEMBL1201862, “PubChem BioAssay data set” (2004).

Some test systems named below: BT-549; CAKI-1; DU-145; HCC 2998; HCT-116; HL-60; HOP-62; MDA-MB-231; MDA-N; Malme-3M; NCI-H23; RPMI-8226; RXF 393; SF-268; SF-295; SK-MEL-28; SK-MEL-5; SR; SW-620; UACC-62.
Common to all, as to assay: NCI anticancer screen, dose series, 48 h

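Briefly, cells in 96-well plates were exposed to five compound concentrations for 48 h, and endpoints were estimated by linear interpolation. Abbreviation: GI50, concentration required for 50% inhibition of growth.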 The source made the active and inactive calls. No stated cut-off is given here; in the data, active = GI50 up to about 1.1 µM and inactive = higher. Where only a bound is given, the exact number is not on record here.

With `CC(C)NC(=O)OCc1c(COC(=O)NC(C)C)c(-c2cc[n+](COC(=O)C3CCCCC3)cc2)n2c1CCC2`, the GI50 in the experiment with BT-549 was > 100 µM (inactive); with CAKI-1 it was 50 µM (inactive); with DU-145, > 100 µM (inactive); in the experiment with HCC 2998 it was > 100 µM (inactive); with HCT-116, > 100 µM (inactive); with HL-60, 32.4 µM (inactive). Moreover, the GI50 in the experiment on HOP-62, with MDA-MB-231, with MDA-N, with Malme-3M, in the experiment on NCI-H23 and with RPMI-8226 was > 100 µM (inactive) throughout. Besides, the GI50 was > 100 µM (inactive) with RXF 393; 91.2 µM (inactive) with SF-268; > 100 µM (inactive) in the experiment on SF-295; > 100 µM (inactive) in the experiment with SK-MEL-28; > 100 µM (inactive) in the experiment on SK-MEL-5; 9.25 µM (inactive) with SR. The GI50 with SW-620 is > 100 µM (inactive); in the experiment on UACC-62, 99.8 µM (inactive).
In the case of `COCN1C(=O)[C@@H]2C[C@@H](O)CN2C(=O)c2ccccc21`, the GI50 is > 100 µM (inactive) in the experiment on BT-549; > 100 µM (inactive) in the experiment on CAKI-1; > 100 µM (inactive) in the experiment on DU-145; > 100 µM (inactive) in the experiment on HCC 2998; > 100 µM (inactive) with HCT-116; 60.5 µM (inactive) in the experiment with HL-60. For the same compound, the GI50 in the experiment on HOP-62, in the experiment with MDA-MB-231, with MDA-N, in the experiment on Malme-3M, in the experiment on NCI-H23 and in the experiment on RPMI-8226 was > 100 µM (inactive) in each case. The GI50 in the experiment with RXF 393, with SF-268, in the experiment on SF-295, with SK-MEL-28, in the experiment on SK-MEL-5 and in the experiment with SR was > 100 µM (inactive) in each case. Also, the GI50 in the experiment with SW-620 and with UACC-62 was > 100 µM (inactive) throughout.
As for `CC(=O)OC1C(O)C(C)OC(OC2C(OC(=O)C3CCC4C(C3)OC3(CC(OC(=O)/C=C/c5ccccc5)C(C)CO3)C43CO3)OC(C)C(O)C2OC(C)=O)C1O` (stereo not given), the GI50 is 0.00358 µM (active) in the experiment on BT-549; 0.285 µM (active) in the experiment with CAKI-1; 0.0103 µM (active) in the experiment on DU-145; 0.00358 µM (active) in the experiment with HCC 2998; 0.00661 µM (active) in the experiment with HCT-116; 0.00507 µM (active) in the experiment on HL-60. Besides, the GI50 with HOP-62 was 0.00951 µM (active); in the experiment on MDA-MB-231 it was 0.0203 µM (active); in the experiment with MDA-N it was 0.00269 µM (active); in the experiment with Malme-3M, 0.00507 µM (active); in the experiment on NCI-H23 it was 0.0123 µM (active); in the experiment on RPMI-8226, 0.00227 µM (active). In addition, the GI50 with RXF 393 was 0.0319 µM (active); in the experiment with SF-268 it was 0.00849 µM (active); with SF-295 it was 0.0262 µM (active); with SK-MEL-28, 0.008 µM (active); with SK-MEL-5 it was 0.00418 µM (active); in the experiment on SR, 0.00258 µM (active). The GI50 in the experiment on SW-620 was 0.0111 µM (active); in the experiment with UACC-62, 0.0108 µM (active).
In the case of `COc1c(O)ccc(C2=Cc3ccc(O)cc3OC2)c1OC`, the GI50 was 23.6 µM (inactive) in the experiment with BT-549; 8.81 µM (inactive) in the experiment with CAKI-1; 26.7 µM (inactive) in the experiment on DU-145; 21 µM (inactive) with HCC 2998; 24.3 µM (inactive) in the experiment on HCT-116; 2.82 µM (inactive) in the experiment on HL-60. Further, the GI50 is 20.9 µM (inactive) with HOP-62; 20.7 µM (inactive) with MDA-MB-231; 3.68 µM (inactive) in the experiment on MDA-N; 18.9 µM (inactive) with Malme-3M; 22.3 µM (inactive) in the experiment with NCI-H23; 3.51 µM (inactive) in the experiment with RPMI-8226. The GI50 in the experiment with RXF 393 was 18.7 µM (inactive); in the experiment with SF-268, 20.2 µM (inactive); with SF-295, 22.8 µM (inactive); in the experiment with SK-MEL-28, 34.3 µM (inactive); with SK-MEL-5 it was 16.1 µM (inactive); in the experiment on SR, 2.15 µM (inactive). Also, the GI50 was 26.7 µM (inactive) in the experiment on SW-620 and 16.2 µM (inactive) in the experiment on UACC-62.
Turning to `O=C(O)C1=NN(c2ccc(S(=O)(=O)O)cc2)C2(C1)C(Cl)C(=O)N2c1nc2ccccc2s1` (stereo not given), the GI50 with BT-549 is 17.4 µM (inactive); in the experiment on CAKI-1, 15.4 µM (inactive); in the experiment with DU-145, 19.1 µM (inactive); with HCC 2998, 18.8 µM (inactive); with HCT-116, 16.5 µM (inactive); in the experiment on HL-60, 16.2 µM (inactive). For the same compound, the GI50 was 12.5 µM (inactive) with HOP-62; 19 µM (inactive) in the experiment with MDA-MB-231; 21.4 µM (inactive) in the experiment with MDA-N; 20.5 µM (inactive) in the experiment on Malme-3M; 14.4 µM (inactive) in the experiment with NCI-H23; 13.1 µM (inactive) with RPMI-8226. For the same compound, the GI50 in the experiment with RXF 393 is 16.1 µM (inactive); in the experiment on SF-268, 17.9 µM (inactive); with SF-295, 15.6 µM (inactive); with SK-MEL-28 it was 20.2 µM (inactive); with SK-MEL-5 it was 12.8 µM (inactive); with SR it was 7.82 µM (inactive). For the same compound, the GI50 was 2.68 µM (inactive) in the experiment with SW-620 and 14.4 µM (inactive) with UACC-62.
For `COc1cc([C@H]2CC(=O)C[C@@H](c3cc(OC)c(OC)c(OC)c3)C23C(=O)c2ccccc2C3=O)cc(OC)c1OC`, the GI50 in the experiment on BT-549, in the experiment on CAKI-1, in the experiment on DU-145, with HCC 2998, with HCT-116 and in the experiment with HL-60 was > 100 µM (inactive) in each case. In addition, the GI50 with HOP-62, with MDA-MB-231, with MDA-N, with Malme-3M, in the experiment with NCI-H23 and in the experiment on RPMI-8226 was > 100 µM (inactive) in each case. The GI50 in the experiment with RXF 393, in the experiment with SF-268, in the experiment on SF-295, with SK-MEL-28, in the experiment on SK-MEL-5 and in the experiment on SR was > 100 µM (inactive) throughout. Besides, the GI50 in the experiment with SW-620 and in the experiment on UACC-62 was > 100 µM (inactive) in each case.
On to `O=C1c2ccccc2C(=O)[C@@]23O[C@@]12C1(Oc2cccc4cccc(c24)O1)[C@@H]1O[C@@H]1[C@@H]3O`, for which the GI50 in the experiment with BT-549 is 2.9 µM (inactive); in the experiment on CAKI-1 it was 11.1 µM (inactive); in the experiment on DU-145, 14.6 µM (inactive); with HCC 2998, 6.17 µM (inactive); in the experiment on HCT-116, 4.4 µM (inactive); in the experiment with HL-60, 1.66 µM (inactive). Moreover, the GI50 was 12.6 µM (inactive) in the experiment on HOP-62; 14.8 µM (inactive) with MDA-MB-231; 9.46 µM (inactive) in the experiment with MDA-N; 13.4 µM (inactive) in the experiment with Malme-3M; 13.6 µM (inactive) with NCI-H23; 2.68 µM (inactive) in the experiment with RPMI-8226. Moreover, the GI50 in the experiment on RXF 393 is 2.95 µM (inactive); in the experiment on SF-268, 9.68 µM (inactive); in the experiment with SF-295, 12.9 µM (inactive); with SK-MEL-28, 20.6 µM (inactive); in the experiment on SK-MEL-5 it was 24.4 µM (inactive); in the experiment on SR, 1.43 µM (inactive). Further, the GI50 in the experiment on SW-620 is 6.93 µM (inactive); with UACC-62 it was 14.2 µM (inactive).
On to `COc1ccc2cc(CNCCCCCCCCNCc3ccc4cc(OC)ccc4c3)ccc2c1`, for which the GI50 in the experiment on BT-549 was 6.67 µM (inactive); in the experiment with CAKI-1, 6.67 µM (inactive); with DU-145, 6.97 µM (inactive); with HCC 2998, 1.85 µM (inactive); in the experiment with HCT-116 it was 4.42 µM (inactive); with HL-60, 1.58 µM (inactive). The GI50 in the experiment with HOP-62 was 4.97 µM (inactive); in the experiment on MDA-MB-231 it was 13.7 µM (inactive); with MDA-N, 7.74 µM (inactive); with Malme-3M it was 6.85 µM (inactive); with NCI-H23, 13.8 µM (inactive); in the experiment with RPMI-8226, 1.48 µM (inactive). In addition, the GI50 with RXF 393 was 8.07 µM (inactive); in the experiment with SF-268, 4.34 µM (inactive); in the experiment with SF-295 it was 5.3 µM (inactive); in the experiment on SK-MEL-28, 5.78 µM (inactive); with SK-MEL-5, 11.7 µM (inactive); with SR, 1.12 µM (active). Besides, the GI50 in the experiment on SW-620 is 1.97 µM (inactive); in the experiment with UACC-62 it was 2.01 µM (inactive).
For the compound `Cc1cc(N(CCOS(C)(=O)=O)CCOS(C)(=O)=O)ccc1/C=N/c1ccc(-c2nc(Cc3ccccc3)sc2C)cc1`, the GI50 is 9.12 µM (inactive) in the experiment with BT-549; 1.23 µM (inactive) in the experiment on CAKI-1; 0.834 µM (active) in the experiment with DU-145; 3.77 µM (inactive) in the experiment with HCC 2998; 15.2 µM (inactive) in the experiment with HCT-116; 1.17 µM (inactive) with HL-60. Besides, the GI50 in the experiment with HOP-62 was 1.75 µM (inactive); in the experiment on MDA-MB-231, 15.3 µM (inactive); with MDA-N it was 11.8 µM (inactive); in the experiment on Malme-3M it was 11.4 µM (inactive); in the experiment on NCI-H23, 2.91 µM (inactive); in the experiment on RPMI-8226, 3.82 µM (inactive). Also, the GI50 is 0.933 µM (active) with RXF 393; 3.99 µM (inactive) with SF-268; 1.57 µM (inactive) in the experiment with SF-295; 14.2 µM (inactive) in the experiment on SK-MEL-28; 9.68 µM (inactive) with SK-MEL-5; 1.32 µM (inactive) in the experiment on SR. Also, the GI50 is 8.57 µM (inactive) in the experiment on SW-620 and 1.47 µM (inactive) in the experiment on UACC-62.
In the case of `CCOC(=O)NC(Nc1ccc(F)cc1F)(C(F)(F)F)C(F)(F)F`, the GI50 with BT-549, in the experiment on CAKI-1, in the experiment on DU-145, in the experiment on HCC 2998, in the experiment on HCT-116 and in the experiment on HL-60 was > 100 µM (inactive) each time. Further, the GI50 with HOP-62, in the experiment with MDA-MB-231, with MDA-N, in the experiment with Malme-3M, in the experiment on NCI-H23 and with RPMI-8226 was > 100 µM (inactive) in each case. The GI50 with RXF 393, with SF-268, in the experiment on SF-295, in the experiment on SK-MEL-28, with SK-MEL-5 and in the experiment with SR was > 100 µM (inactive) each time. Also, the GI50 in the experiment on SW-620 and in the experiment on UACC-62 was > 100 µM (inactive) in each case.
